The source of these data is patent US7163952B2, “Azole compound and medicinal use thereof” (Japan Tobacco Inc., priority 2001, dated 2007).

Usually melting point stands for the temperature of the solid-liquid transition. As for `CN(Cc1ccc(C2CCOCC2)cc1)c1ccc(-c2csc(N(C)Cc3ccc(C(=O)O)cc3)n2)cc1` [Example 210, 4-((N-methyl-N-(4-(4-(N-methyl-N-(4-(tetrahydropyran-4-yl)benzyl)amino)phenyl)-2-thiazolyl)amino)methyl)benzoic acid], the melting point lay within 225 to 227 °C. In turn, `CC(=O)N1CCC(c2ccc(CN(C)c3ccc(-c4csc(N(C)Cc5ccc(C(=O)O)cc5)n4)cc3)cc2)CC1` [Example 211, 4-((N-(4-(4-(N-(4-(1-acetylpiperidin-4-yl)benzyl)-N-methylamino)phenyl)-2-thiazolyl)-N-methylamino)methyl)benzoic acid] gave a melting point of 208 to 210 °C. In the case of `CN(Cc1ccc(C2CCCC2)cc1)c1ccc(-c2csc(N(C)Cc3ccc(C(=O)O)cc3)n2)cc1` [Example 212, 4-((N-(4-(4-(N-(4-cyclopentylbenzyl)-N-methylamino)phenyl)-2-thiazolyl)-N-methylamino)methyl)benzoic acid], the melting point lay within 181 to 183 °C. In the case of `CN(Cc1ccc(C(=O)O)cc1)c1nc(-c2ccc(N(C)C[C@H]3CC[C@H](c4ccccc4)CC3)cc2)cs1` [Example 213, trans-4-((N-methyl-N-(4-(4-(N-methyl-N-(4-phenylcyclohexylmethyl)amino)phenyl)-2-thiazolyl)amino)methyl)benzoic acid], the melting point is 191 to 193 °C.

The molecule `CN(Cc1ccc(C2CCC(C)(C)CC2)cc1)c1ccc(-c2csc(N(C)Cc3ccc(C(=O)[O-])cc3)n2)cc1.[Na+]` [Example 216, sodium 4-((N-(4-(4-(N-(4-(4,4-dimethylcyclohexyl)benzyl)-N-methylamino)phenyl)-2-thiazolyl)-N-methylamino)methyl)benzoate] displayed a melting point of 230 °C. For `O=C(O)c1ccc(CN(CC2CCCCC2)c2nc(-c3nc4ccc(OCc5ccccc5)cc4o3)cs2)cc1` [Example 220, 4-((N-(4-(6-benzyloxy-2-benzooxazolyl)-2-thiazolyl)-N-cyclohexylmethylamino)methyl)benzoic acid], the melting point was in the range of 117 to 119 °C.

`O=C(O)c1ccc(CN(CC2CCCCC2)c2nc(-c3nc4ccc(OCCc5ccccc5)cc4o3)cs2)cc1` [Example 221, 4-((N-cyclohexylmethyl-N-(4-(6-phenethyloxy-2-benzooxazolyl)-2-thiazolyl)amino)methyl)benzoic acid] displayed a melting point of 105 to 108 °C.

`CN(CCCCc1ccccc1)c1ccc(-c2csc(N(C)Cc3ccc(C(=O)O)cc3)n2)cc1` [Example 222, 4-((N-methyl-N-(4-(4-(N-methyl-N-(4-phenylbutyl)amino)phenyl)-2-thiazolyl)amino)methyl)benzoic acid] had a melting point of 146 to 147 °C. The molecule `CN(CCC1Cc2ccccc2C1)c1ccc(-c2csc(N(C)Cc3ccc(C(=O)O)cc3)n2)cc1` [Example 223, 4-((N-(4-(4-(N-(2-(2-indanyl)ethyl)-N-methylamino)phenyl)-2-thiazolyl)-N-methylamino)methyl)benzoic acid] returned a melting point of 174 to 176 °C.

`CN(CCc1ccc(Cl)c(Cl)c1)c1ccc(-c2csc(N(C)Cc3ccc(C(=O)O)cc3)n2)cc1` [Example 224, 4-((N-(4-(4-(N-(2-(3,4-dichlorophenyl)ethyl)-N-methylamino)phenyl)-2-thiazolyl)-N-methylamino)methyl)benzoic acid] registered a melting point of 151 to 152 °C. `CN(CCCc1ccccc1)c1ccc(-c2csc(N(C)Cc3ccc(C(=O)O)cc3)n2)cc1` [Example 225, 4-((N-methyl-N-(4-(4-(N-methyl-N-(3-phenylpropyl)amino)phenyl)-2-thiazolyl)amino)methyl)benzoic acid] registered a melting point of 127 to 128 °C. Molecule `CN(Cc1ccc(C2CCCCC2)cc1)c1ccc(-c2csc(N(C)Cc3ccc(C(=O)O)cc3)n2)cn1` [Example 226, 4-((N-(4-(6-(N-(4-cyclohexylbenzyl)-N-methylamino)-3-pyridyl)-2-thiazolyl)-N-methylamino)methyl)benzoic acid] came in with a melting point of 157 to 159 °C. `Cc1nc(N(C)Cc2ccc(C3CCCCC3)cc2)sc1-c1csc(N(C)Cc2ccc(C(=O)O)cc2)n1` [Example 227, 4-((N-(2′-(N-(4-cyclohexylbenzyl)-N-methylamino)-4′-methyl-4,5′-bithiazolyl-2-yl)-N-methylamino)methyl)benzoic acid]: the melting point was 172 to 173 °C. Molecule `CN(Cc1ccc(C2CCCCC2)cc1)c1cc(-c2csc(N(C)Cc3ccc(C(=O)O)cc3)n2)cc(Cl)n1` [Example 228, 4-((N-(4-(2-chloro-6-(N-(4-cyclohexylbenzyl)-N-methylamino)-4-pyridyl)-2-thiazolyl)-N-methylamino)methyl)benzoic acid] showed a melting point of 155 to 157 °C.

As to `CN(Cc1ccc(CC(C)(C)C)cc1)c1ccc(-c2csc(N(C)Cc3ccc(C(=O)O)cc3)n2)cc1` [Example 229, 4-((N-(4-(4-(N-(4-(2,2-dimethylpropyl)benzyl)-N-methylamino)phenyl)-2-thiazolyl)-N-methylamino)methyl)benzoic acid], the melting point lay in the range of 176 to 177 °C. In turn, `CN(Cc1ccc(C(=O)O)cc1)c1nc(-c2ccc3[nH]c(-c4ccc(C5CCCCC5)cc4)nc3c2)cs1` [Example 231, 4-((N-(4-(2-(4-cyclohexylphenyl)-1H-benzoimidazol-5-yl)-2-thiazolyl)-N-methylamino)methyl)benzoic acid] came in with a melting point of 250 °C. As for `CN(Cc1ccc(C(=O)O)cc1)c1nc(-c2cnc(N(C)Cc3ccc(C4CCCCC4)cc3)c(Cl)c2)cs1` [Example 232, 4-((N-(4-(5-chloro-6-(N-(4-cyclohexylbenzyl)-N-methylamino)-3-pyridyl)-2-thiazolyl)-N-methylamino)methyl)benzoic acid], the figure is 144 to 145 °C. Molecule `CN(Cc1ccc(C(C)(C)C)cc1)c1ccc(-c2csc(N(C)Cc3ccc(C(=O)O)cc3)n2)cc1` [Example 233, 4-((N-(4-(4-(N-(4-tert-butylbenzyl)-N-methylamino)phenyl)-2-thiazolyl)-N-methylamino)methyl)benzoic acid] displayed a melting point of 166 to 167 °C. As to `CN(Cc1ccc(C(F)(F)F)cc1)c1ccc(-c2csc(N(C)Cc3ccc(C(=O)O)cc3)n2)cc1` [Example 234, 4-((N-methyl-N-(4-(4-(N-methyl-N-(4-trifluoromethylbenzyl)amino)phenyl)-2-thiazolyl)amino)methyl)benzoic acid], the melting point lay in the range of 180 to 181 °C. In the case of `CN(CCc1ccc(C(C)(C)C)cc1)c1ccc(-c2csc(N(C)Cc3ccc(C(=O)O)cc3)n2)cc1` [Example 235, 4-((N-(4-(4-(N-(2-(4-tert-butylphenyl)ethyl)-N-methylamino)phenyl)-2-thiazolyl)-N-methylamino)methyl)benzoic acid], the melting point was found to be 162 °C.

The molecule `CN(CCc1ccc(C(F)(F)F)cc1)c1ccc(-c2csc(N(C)Cc3ccc(C(=O)O)cc3)n2)cc1` [Example 236, 4-((N-methyl-N-(4-(4-(N-methyl-N-(2-(4-trifluoromethylphenyl)ethyl)amino)phenyl)-2-thiazolyl)amino)methyl)benzoic acid] had a melting point of 158 to 159 °C.
